From paper PMC9925730, “Controlled sequential in situ self-assembly and disassembly of a fluorogenic cisplatin prodrug for cancer theranostics” (Nature Communications, 2023)
Values joined by “and” are separate entries in the source; they are usually repeats but may differ in a detail not shown here. Identical values can stand only once.

What was measured:
[1] = NIR FL, PA and absorption signals of Pt^IVNPs in solution in response to GSH; settings: P-CyPt 10 μM
Procedure: To monitor the NIR FL and PA imaging signals of P-CyPt in response to ALP, P-CyPt (10 μM) in Tris buffer (1 mL) was incubated with ALP (100 U/L) at 37 °C for 0, 5, 10, 15, 20, and 30 min. To monitor the NIR FL and PA imaging signals of Pt^IVNPs in response to GSH, P-CyPt (10 μM) in Tris buffer (1 mL) was first incubated with ALP (100 U/L) at 37 °C for 30 min and then incubated with 10 mM GSH at 37 °C for another 10, 20, 30, 40, 50, and 60 min. The NIR FL spectra of these solutions at each time point were acquired on a HORIBA Jobin Yvon Fluoromax-4 fluorescence spectrometer, with excitation at 680 nm. For PA imaging, the incubation solutions at each time point were loaded into a fine bore polythene tube ([…], 1.27 mm OD). The tubes were then sealed and immersed in water. The PA images at both 700 and 750 nm were acquired on the Vevo 2100 LAZR system (FUJIFILM VisualSonics).

[2] = system: HeLa cells; experiment: Distribution of Pt element in subcellular organelles (ICP-OES); type: cell-based
Procedure: Supplementary Table 3. Comparison of the distribution of Pt element in different subcellular organelles between P-CyPt and CDDP. a Subcellular Amount of Pt distributed in a Percentage of Pt distributed in organelles single cell’s organelle (fmol) b a single cell’s organelle (%) c […]
a HeLa cells were incubated with P-CyPt or CDDP (10 μM) for 1 h. After that, the cells were washed with PBS for three times, replaced with blank medium and cultured for another 24 h. The cells were trypsinized, collected, and the cell numbers were counted.
The cell pellets were dispersed in PBS buffer, lysed via ultrasound sonication, and centrifuged at different speed to separate membrane, nucleus, lysosome together with mitochondria, and cytoplasm. The concentration of Pt element in each organelle fraction was then measured by ICP-OES. Values denote mean ± s.d. (n = 3 independent […]
b The amount of Pt in a single HeLa cell’s subcellular organelle was calculated by dividing the total amount of Pt element in different subcellular organelles to the cell […]
c Percentage of Pt distributed in a single HeLa cell’s subcellular organelles was calculated by dividing the amount of Pt in a single cell’s subcellular organelles by the amount of Pt in a single cell (sum of organelles). […]
For Pt distribution analysis, the cells were treated with P-CyPt (10 μM) or CDDP (10 μM) for 1 h, and then washed with PBS for three times, followed by incubation with fresh medium for another 24 h. After that, cells were washed gently with 2 mL PBS once. The cells were trypsinized, centrifuged and counted. The cell lysates were separated according to a reported fragmentation procedure to obtained different cell fractions, including N (nuclei), M (plasma membrane), L (lysosomes and mitochondria) and C (cytosol). The Cells and different cell fractions were digested with concentrated HNO3 (65~70%) and HCl (36~38%) at 90 °C for 24 h. The solution was diluted to 5 mL 2% HNO3 and 5% HCl solution, and the concentration of Pt element was measured by ICP-OES, which was further applied to calculate the amount of Pt in cells and subcellular organelles. […]
The count number for each flow cytometry analysis was ~5000 to 10000, and the data was processed using FlowJo software.
Evaluation of the ability to break DNA double strand. Supercoiled pBR322 plasmi d DNA (20 ng μL–1) was incubated with blank Tris buffer (i) or Tris buffer containing GSH (2 mM, ii), Tris buffer containing CDDP (100 μM, iii), Tris buffer containing GSH (2 mM) and CDDP (100 μM, iv), Tris buffer containing P-CyPt (100 μM, v), Tris buffer containing P-CyPt (100 μM) and GSH (2 mM, vi), Tris buffer containing P-CyPt (100 μM) and ALP (500 U/L, vii), and Tris buffer containing P-CyPt (100 μM), ALP (500 U/L) and GSH (2 mM, viii) or incubated with P-CyPt ((0, 1, 2, 5, 10, 20, 50 and 100 μM, from i-viii) respectively in the presence of ALP (500 U/L), followed by incubation with GSH (2 mM) in Tris buffer) at 37 °C for 16 h. Then, the reactions (10 μL) were quenched by loading buffer (2 μL, including 30 mM EDTA, 36% glycerol, 0.05% xylene cyanol FF, and 0.05% bromophenol blue). The resulting solutions and 1kb-I DNA ladder (GsDL10001) were loaded into native agarose gel (1%) and subjected to electrophoresis in a TAE buffer (40 mM Tris acetate, 1 mM EDTA). The

[3] = ALP 30 min then GSH 10 mM 10 min (time 40)
[4] = ALP 30 min then GSH 10 mM 20 min (time 50)
[5] = ALP 30 min then GSH 10 mM 30 min (time 60)
[6] = ALP 30 min then GSH 10 mM 40 min (time 70)
[7] = ALP 30 min then GSH 10 mM 50 min (time 80)
[8] = ALP 30 min then GSH 10 mM 60 min (time 90)
[9] = Cytoplasm (C), individual samples
[10] = Cytoplasm (C), mean of 3 samples
[11] = HeLa, 10 μM 1 h, then blank medium 24 h
[12] = Membrane(M), individual samples
[13] = Mito&Lyso (L), individual samples
[14] = Mito&Lyso (L), mean of 3 samples
[15] = Nucleus (N), individual samples

CC1(C)C(/C=C/C2=C3Oc4cc(OP(=O)(O)O)c(Cl)cc4C=C3CCC2)=[N+](CCCNC(=O)[C@@H](Cc2ccccc2)NC(=O)[C@@H](Cc2ccccc2)NC(=O)CCC(=O)[O][Pt]([NH2])([NH2])([OH])([Cl])[Cl])c2ccccc21 [P-CyPt]
normalized Abs. at 700 nm (Fig. 2j) [1, 3]: 1.037
normalized Abs. at 750 nm (Fig. 2j) [1, 3]: 0.6059
normalized FL intensity at 710 nm (Fig. 2k) [1, 3]: 15.4414
normalized PA intensity at 700 nm (Fig. 2l) [1, 3]: 0.9827
normalized PA intensity at 750 nm (Fig. 2l) [1, 3]: 0.8167
normalized Abs. at 700 nm (Fig. 2j) [1, 4]: 1.054
normalized Abs. at 750 nm (Fig. 2j) [1, 4]: 0.4238
normalized FL intensity at 710 nm (Fig. 2k) [1, 4]: 19.7308
normalized PA intensity at 700 nm (Fig. 2l) [1, 4]: 0.9792
normalized PA intensity at 750 nm (Fig. 2l) [1, 4]: 0.6967
normalized Abs. at 700 nm (Fig. 2j) [1, 5]: 1.062
normalized Abs. at 750 nm (Fig. 2j) [1, 5]: 0.3077
normalized FL intensity at 710 nm (Fig. 2k) [1, 5]: 25.1768
normalized PA intensity at 700 nm (Fig. 2l) [1, 5]: 0.9821
normalized PA intensity at 750 nm (Fig. 2l) [1, 5]: 0.5167
normalized Abs. at 700 nm (Fig. 2j) [1, 6]: 1.0719
normalized Abs. at 750 nm (Fig. 2j) [1, 6]: 0.2002
normalized FL intensity at 710 nm (Fig. 2k) [1, 6]: 29.4155
normalized PA intensity at 700 nm (Fig. 2l) [1, 6]: 0.9744
normalized PA intensity at 750 nm (Fig. 2l) [1, 6]: 0.3617
normalized Abs. at 700 nm (Fig. 2j) [1, 7]: 1.0764
normalized Abs. at 750 nm (Fig. 2j) [1, 7]: 0.1155
normalized FL intensity at 710 nm (Fig. 2k) [1, 7]: 34.4707
normalized PA intensity at 700 nm (Fig. 2l) [1, 7]: 0.9821
normalized PA intensity at 750 nm (Fig. 2l) [1, 7]: 0.2567
normalized Abs. at 700 nm (Fig. 2j) [1, 8]: 1.084
normalized Abs. at 750 nm (Fig. 2j) [1, 8]: 0.09482
normalized FL intensity at 710 nm (Fig. 2k) [1, 8]: 35.3761
normalized PA intensity at 700 nm (Fig. 2l) [1, 8]: 1.001
normalized PA intensity at 750 nm (Fig. 2l) [1, 8]: 0.1807
Amount of Pt in subcellular fraction [2, 9]: 10.4601 fmol and 9.6958 fmol and 8.113 fmol
Distribution of Pt in subcellular fraction [2, 9]: 43.0958% and 39.9467% and 33.4263%
Amount of Pt in subcellular fraction [2, 10]: 9.42 fmol
Distribution of Pt in subcellular fraction [2, 10]: 38.82%
Amount of Pt distributed in a single cell's organelle: Cytoplasm [2, 11]: 9.42 ± 1.20 fmol
Amount of Pt distributed in a single cell's organelle: Lysosome & Mitochondria [2, 11]: 6.34 ± 0.81 fmol
Amount of Pt distributed in a single cell's organelle: Membrane [2, 11]: 1.46 ± 0.19 fmol
Amount of Pt distributed in a single cell's organelle: Nucleus [2, 11]: 7.05 ± 0.90 fmol
Percentage of Pt distributed in a single cell's organelle: Cytoplasm (cytosol) [2, 11]: 38.82%
Percentage of Pt distributed in a single cell's organelle: Lysosome & Mitochondria [2, 11]: 26.11% and ~ 26.11%
Percentage of Pt distributed in a single cell's organelle: Membrane [2, 11]: 6.02%
Percentage of Pt distributed in a single cell's organelle: Nucleus [2, 11]: 29.05% and ~ 29.05%
Amount of Pt in subcellular fraction [2, 12]: 0.7699 fmol and 1.266 fmol and 2.345 fmol
Distribution of Pt in subcellular fraction [2, 12]: 3.1718% and 5.2172% and 9.6606%
Amount of Pt in subcellular fraction ([2]; Membrane(M), mean of 3 samples): 1.46 fmol
Distribution of Pt in subcellular fraction ([2]; Membrane(M), mean of 3 samples): 6.02%
Amount of Pt in subcellular fraction [2, 13]: 6.19 fmol and 6.277 fmol and 6.546 fmol
Distribution of Pt in subcellular fraction [2, 13]: 25.5012% and 25.8599% and 26.9676%
Amount of Pt in subcellular fraction [2, 14]: 6.34 fmol
Distribution of Pt in subcellular fraction [2, 14]: 26.11%
Amount of Pt in subcellular fraction [2, 15]: 6.061 fmol and 7.285 fmol and 7.806 fmol
Distribution of Pt in subcellular fraction [2, 15]: 24.9722% and 30.0159% and 32.1624%
Amount of Pt in subcellular fraction ([2]; Nucleus (N), mean of 3 samples): 7.05 fmol
Distribution of Pt in subcellular fraction ([2]; Nucleus (N), mean of 3 samples): 29.05%
